Measurements as given in US7879876B2, “Sulfonamide derivatives and use thereof for the modulation of metalloproteinases” (Merck Serono SA, priority 2005, dated 2011).

Experiments:
[1] = system: IL-2-induced peritoneal recruitment of lymphocytes; experiment: IL-2-induced peritoneal recruitment of lymphocytes; assay type: in vivo, C3H/HEN mice; details: Mus musculus, Lymphocyte, po; 3 mg/kg p.o., 15 min prior to IL-2; mice; 24 h after IL-2
Experimental: Administration of IL-2 intraperitoneally causes migration of lymphocytes into the intraperitoneal cavity. This is a model for the cellular migration that occurs during inflammation.
C3H/HEN mice (Elevage Janvier, France) were intraperitoneally injected with IL-2 (Serono Pharmaceutical Research Institute, 20 μg/kg, in saline). Compounds of the invention were suspended in 0.5% carboxymethylcellulose (CMC)/0.25% tween-20 and were administered by s.c. or p.o. route (10 ml/kg) 15 min prior to administration of IL-2.
Twenty-four hours after administration of IL-2, peritoneal white blood cells were collected by 3 successive lavages of the peritoneal cavity with 5 ml phosphate buffered saline (PBS)-1 mM EDTA (+4° C.). The suspension was centrifuged (1700 g×10 min at +4° C.). The resulting pellet was suspended in 1 ml PBS-1 mM EDTA.
Lymphocytes were identified and counted using a Beckman/Coulter counter.
The animals were divided into 6 groups (6 mice each group):
Group 1: (baseline) received 0.5% CMC/0.25% tween-20 (vehicle of compound of the invention) and saline (vehicle of IL-2);
Group 2: (control IL-2) received 0.5% CMC/0.25% tween-20 and injection of IL-2;
Group 3: Experimental group (Compound of the invention Dose 1) received a compound of the invention and injection of IL-2;
Group 4: Experimental group (Compound of the invention Dose 2) received a compound of the invention and injection of IL-2;
Group 5: Experimental group (Compound of the invention Dose 3) received a compound of the invention and injection of IL-2;
Group 6: Reference group received reference compound dexamethasone and injection of IL-2.
Inhibition of lymphocyte recruitment was calculated as follows:
Where Ly 1=Number of lymphocytes in group 1 (E3/μl), Ly 2=Number of lymphocytes in group 2 (E3/μl), Ly X=Number of lymphocytes in group X (3-5) (E3/μl).

MMP13 = MMP13 (Homo sapiens, UniProt P45452); experiment: MMP13 inhibition (Table 1); assay type: biochemical; details: read-out: percentage inhibition MMP13

| Structure (SMILES) | inhibition in vivo at 3 mg/kg [1] [%] | inhibition at 0.1 µM (MMP13) [%] | inhibition at 5 µM (MMP13) [%] |
| --- | --- | --- | --- |
| O=CN(O)C(CCc1ccccc1)CS(=O)(=O)N1Cc2ccccc2C1 (stereo not drawn) [Example 6, N-{1-[(1,3-dihydro-2H-isoindol-2-ylsulfonyl)methyl]-3-phenylpropyl}-N-hydroxyformamide] | 40 ± 6 | 11 | 94 |
| COc1cc2c(cc1OC)CN(S(=O)(=O)CC([C@H]1COC(C)(C)O1)N(O)C=O)CC2 (stereo partly drawn) [Example 14, N-{2-[(6,7-dimethoxy-3,4-dihydroisoquinolin-2(1H)-yl)sulfonyl]-1-[(4S)-2,2-dimethyl-1,3-dioxolan-4-yl]ethyl}-N-hydroxyformamide] | 50 ± 10 | 5 | 68 |
